# In patent US20250171413A1, “ANTIVIRAL INDOLINYL COMPOUNDS AND USES THEREOF” (Gilead Sciences, Inc., priority 2023, published 2025):
# Like-named read-outs stand apart in the source and are kept apart here.
# Test system: HSV-2 virus (MS strain)
# Experiment: HSV-2 Cellomics Assay (immunofluorescence of HSV protein gD)
# Format: cell-based
# Settings: Human alphaherpesvirus 2, HSV-2 (MS strain, MOI 0.06) infected ARPE-19 cells, 16 hours
# Procedure: Compounds were tested for their ability to inhibit HSV-2 replication by monitoring the expression of the HSV protein gD using a high-throughput immunofluorescence-based assay. 10-dose, 3-fold serial dilutions of compounds were prepared at starting concentrations of 0.2 or 2 mM in 100% DMSO. 250 nl of compounds were spotted in quadruplicates onto black collagen-coated 384-well microplates with clear bottom (Greiner cat #781956) using a Labcyte ECHO acoustic dispenser. The final starting concentration in the assay was either […]. DMSO (no compound) and pritelivir were included on each microplate as negative and positive controls, respectively.
# ARPE-19 cells (ATCC cat #CRL-2302) were maintained DMEM/F-12 Glutamax medium (Thermo Fisher Scientific cat #10565018) supplemented with 10% FBS (Corning cat #35-011-CV) and 1% Penicillin-Streptomycin (cat #30-002-CI). Prior to confluence, cells were transferred to a centrifuge tube and spun for 5 minutes at 1000 rpm. Cells were resuspended in assay medium (DMEM/F-12 Glutamax, 2% FBS, 1% Penicillin-Streptomycin) and counted. Cell density was adjusted to 150,000 cells/ml and infected with HSV-2 virus (MS strain, ATCC cat #VR-540) at a MOI of 0.06 in a 50 ml conical tube for 1 hour under constant rocking. Cells were then spun for 5 minutes at 1000 rpm and the media replaced with assay medium containing either 2% FBS or 10% human serum (EMD Millipore cat #S1-100ML). 50 μl of the infection suspension were added into microplate wells that were pre-spotted with compounds (7,500 cells per well). Plates were incubated for 16 hours at 37° C.
# Cell culture medium was aspirated using a Biomek Fx and 50 μl of a paraformaldehyde solution (Electron Microscopy Sciences cat #15712-5) diluted to 4% in DPBS (Corning cat #21-031-CM) were added per well. After a 30-minute incubation at room temperature, plates were washed 4 times with 100 μl/well of PBS using a Biotek plate washer. A 1:500 solution of primary antibody (anti-HSV gD, Virusys cat #P1103) was prepared in permeabilization buffer (Invitrogen cat #00-8333-56) and 50 μl were added into wells. After a 1-hour incubation at room temperature, 50 μl of a 1:1000 solution of secondary antibody (Alexa Fluor 488 goat anti-mouse, Thermo Fisher Scientific cat #A11001) and DAPI (Thermo Fisher Scientific cat #62248) in permeabilization buffer were added into wells and plates were incubated in the dark at room temperature for 1 hour. Plates were washed 4 times again and 50 μl of DPBS were added to all wells prior to sealing the plates with a black adhesive seal. Fluorescence was measured on a Cellomics plate reader.
# Data analysis was carried out using the Thermo Scientific HCS Studio software. Briefly, cells were identified using the DAPI nuclear stain and thresholds were set to filter cells out based on shape and size. A second threshold based on green fluorescence intensity (detection of HSV-2 gD) was set to identify HSV-2 infected cells. Data was reported as the average fluorescence intensity of HSV-2 infected cells. EC50 values were defined as the compound concentration that caused a 50% decrease in the average fluorescence intensity and was calculated using a sigmoidal dose-response model to generate curve fits.
# [1] = assay medium containing 2% FBS, read-out: EC50-HSV2-FBS
# [2] = assay medium containing 10% human serum, read-out: EC50-HSV2-10% Human Serum
SMILES,EC50 [1],EC50 [2]
"COCC[S@](=N)(=O)c1cc2c(cc1F)CCN2C(=O)[C@@H]1Cc2ccc(-c3ccccn3)cc2C1 [Example 15, (S)-(5-fluoro-1-((R)-5-(pyridin-2-yl)-2,3-dihydro-1H-indene-2-carbonyl)indolin-6-yl)(imino)(2-methoxyethyl)-λ6-sulfanone]",42 nM,87 nM
"CN=[S@](C)(=O)c1cc2c(cc1F)CCN2C(=O)[C@@H]1Cc2ccc(-c3ccccn3)cc2C1 [Example 23, (R)-(5-fluoro-1-((R)-5-(pyridin-2-yl)-2,3-dihydro-1H-indene-2-carbonyl)indolin-6-yl)(methyl)(methylimino)-λ^6-sulfanone]",155 nM,522 nM
